In US8741906B2 (priority 2011, dated 2014):

Assays:
[1] = target: T1, human CB2 receptors (Homo sapiens, UniProt P34972); test: functional cAMP assay, human CB2; type: cell-based; conditions: CHO cells expressing human CB2, cAMP; read-out: human CB2 EC50
T1 construct: expressed in transfected cells; host or cells: CHO cells
Method: (§1) CHO cells expressing human CB1 or CB2 receptors are seeded 17-24 hours prior to the experiment 50.000 cells per well in a black 96 well plate with flat clear bottom (Corning Costar #3904) in DMEM (Invitrogen No. 31331), 1×HT supplement, with 10% fetal calf serum and incubated at 5% CO2 and 37° C. in a humidified incubator. The growth medium was exchanged with Krebs Ringer Bicarbonate buffer with 1 mM IBMX and incubated at 30° C. for 30 min. Compounds were added to a final assay volume of 100 μl and incubated for 30 min at 30° C. Using the cAMP-Nano-TRF detection kit the assay (Roche Diagnostics) was stopped by the addition of 50 μl lysis reagent (Tris, NaCl, 1.5% Triton X100, 2.5% NP40, 10% NaN3) and 50 μl detection solutions (20 μM mAb Alexa700-cAMP 1:1, and 48 μM Ruthenium-2-AHA-cAMP) and shaken for 2 h at room temperature. The time-resolved energy transfer is measured by a TRF reader (Evotec Technologies GmbH), equipped with a ND:YAG laser as excitation source. The plate is measured twice with the excitation at 355 nm and at the emission with a delay of 100 ns and a gate of 100 ns, total exposure time 10 s at 730 (bandwidth 30 nm) or 645 nm (bandwidth 75 nm), respectively. The FRET signal is calculated as follows: FRET=T730-Alexa730-P(T645-B645) with P=Ru730-B730/Ru645-B645, where T730 is the test well measured at 730 nM, T645 is the test well measured at 645 nm, B730 and B645 are the buffer controls at 730 nm and 645 nm, respectively. cAMP content is determined from the function of a standard curve spanning from 10 μM to 0.13 nM cAMP.
(§2) EC50 values were determined using Activity Base analysis (ID Business Solution, Limited). The EC50 values for a wide range of cannabinoid agonists generated from this assay were in agreement with the values published in the scientific literature.

[2] = target: T2, human CB1 receptors (Homo sapiens, UniProt P21554); test: functional cAMP assay, human CB1; type: cell-based; conditions: CHO cells expressing human CB1, cAMP; read-out: human CB1 EC50
T2 construct: expressed in transfected cells; host or cells: CHO cells
Method: as §1, §2

T1 sequence (P34972 whole entry): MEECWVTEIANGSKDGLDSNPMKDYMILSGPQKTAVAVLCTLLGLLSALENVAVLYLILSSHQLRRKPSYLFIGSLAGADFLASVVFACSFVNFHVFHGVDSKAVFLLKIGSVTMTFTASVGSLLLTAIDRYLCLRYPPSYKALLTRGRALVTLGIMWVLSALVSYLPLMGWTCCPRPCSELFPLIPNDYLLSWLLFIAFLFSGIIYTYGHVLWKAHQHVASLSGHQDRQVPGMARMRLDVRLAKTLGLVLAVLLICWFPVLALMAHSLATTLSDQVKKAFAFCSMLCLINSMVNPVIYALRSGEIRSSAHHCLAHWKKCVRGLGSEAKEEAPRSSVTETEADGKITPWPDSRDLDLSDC
T2 sequence (P21554 whole entry): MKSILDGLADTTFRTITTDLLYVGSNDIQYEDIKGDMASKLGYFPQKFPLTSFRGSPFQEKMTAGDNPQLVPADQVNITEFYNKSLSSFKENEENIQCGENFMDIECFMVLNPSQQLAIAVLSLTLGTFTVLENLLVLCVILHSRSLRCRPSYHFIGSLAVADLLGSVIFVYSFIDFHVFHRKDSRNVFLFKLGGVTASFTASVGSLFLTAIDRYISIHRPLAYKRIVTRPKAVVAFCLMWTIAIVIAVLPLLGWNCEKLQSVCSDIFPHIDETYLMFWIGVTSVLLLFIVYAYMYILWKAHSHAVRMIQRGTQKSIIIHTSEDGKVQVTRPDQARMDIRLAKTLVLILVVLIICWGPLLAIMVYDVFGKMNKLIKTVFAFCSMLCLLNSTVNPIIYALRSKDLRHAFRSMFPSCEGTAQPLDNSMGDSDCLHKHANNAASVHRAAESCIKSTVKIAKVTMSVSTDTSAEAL

Row | Compound | EC50 [1] [nM] | EC50 [2] [nM]
1 | CC(C)(C)c1nc(N2C[C@@H](O)[C@@H](O)C2)c2nnn(Cc3ccccc3Cl)c2n1 [Example 56, (3S,4R)-1-[5-tert-Butyl-3-(2-chloro-benzyl)-3H-[1,2,3]triazolo[4,5-d]pyrimidin-7-yl]-pyrrolidine-3,4-diol] | 16.5 | > 10000
2 | CC1(C)CCN(c2nc(C(C)(C)C)nc3c2nnn3Cc2ccccc2Cl)C1 [Example 189, 5-tert-Butyl-3-(2-chloro-benzyl)-7-(3,3-dimethyl-pyrrolidin-1-yl)-3H-[1,2,3]triazolo[4,5-d]pyrimidine] | 33.2 | > 10000
3 | Cc1nnc(Cn2nnc3c(N4CC(F)(F)C(F)(F)C4)nc(C(C)(C)C)nc32)n1C [Example 177, 5-tert-Butyl-3-(4,5-dimethyl-4H-[1,2,4]triazol-3-ylmethyl)-7-(3,3,4,4-tetrafluoro-pyrrolidin-1-yl)-3H-[1,2,3]triazolo[4,5-d]pyrimidine] | 1.1 | > 10000
4 | COCCn1nnc2c(N3CCC(F)(F)C3)nc(C(C)(C)C)nc21 [Example 62, 5-tert-Butyl-7-(3,3-difluoro-pyrrolidin-1-yl)-3-(2-methoxy-ethyl)-3H-[1,2,3]triazolo[4,5-d]pyrimidine] | 3.3 | > 10000
5 | CC(C)(C)c1nc(N2CCC(F)(F)C2)c2nnn(Cc3c(Cl)ccc(Cl)c3Cl)c2n1 [Example 119, 5-tert-Butyl-7-(3,3-difluoro-pyrrolidin-1-yl)-3-(2,3,6-trichloro-benzyl)-3H-[1,2,3]triazolo[4,5-d]pyrimidine] | 0.3 | 91
6 | CC(C)(C)c1nc(N2CCC(F)(F)C2)c2nnn(Cc3c(F)ccc(F)c3Cl)c2n1 [Example 78, 5-tert-Butyl-3-(2-chloro-3,6-difluoro-benzyl)-7-(3,3-difluoro-pyrrolidin-1-yl)-3H-[1,2,3]triazolo[4,5-d]pyrimidine] | 0.1 | 143
7 | CC(C)(C)c1nc(N2CC[C@@H](O)[C@@H]2CO)c2nnn(Cc3ccccc3Cl)c2n1 [Example 52, (2S,3R)-1-[5-tert-Butyl-3-(2-chloro-benzyl)-3H-[1,2,3]triazolo[4,5-d]pyrimidin-7-yl]-2-hydroxymethyl-pyrrolidin-3-ol] | 20.8 | > 10000
8 | CCN(CC)c1nc(C(C)(C)C)nc2c1nnn2Cc1ccccc1Cl [Example 9, [5-tert-Butyl-3-(2-chloro-benzyl)-3H-[1,2,3]triazolo[4,5-d]pyrimidin-7-yl]-diethyl-amine] | 17.6 | > 10000
9 | Cn1nnnc1Cn1nnc2c(N3CC4(COC4)C3)nc(C(C)(C)C)nc21 [Example 182, 5-tert-Butyl-3-(1-methyl-1H-tetrazol-5-ylmethyl)-7-(2-oxa-6-aza-spiro[3.3]hept-6-yl)-3H-[1,2,3]triazolo[4,5-d]pyrimidine] | 13.9 | > 10000
10 | COc1ccc(Cn2nnc3c(N4CCC(F)(F)C4)nc(C(C)(C)C)nc32)cc1 [Example 60, 5-tert-Butyl-7-(3,3-difluoro-pyrrolidin-1-yl)-3-(4-methoxy-benzyl)-3H-[1,2,3]triazolo[4,5-d]pyrimidine] | 2.5 | > 10000
11 | CC(C)(C)c1nc(N2CC[C@H](O)[C@@H]2CO)c2nnn(Cc3ncccc3Cl)c2n1 [Example 167, (2S,3S)-1-[5-tert-Butyl-3-(3-chloro-pyridin-2-ylmethyl)-3H-[1,2,3]triazolo[4,5-d]pyrimidin-7-yl]-2-hydroxymethyl-pyrrolidin-3-ol] | 3.8 | > 10000
12 | CN(C)c1c(Cl)cncc1Cn1nnc2c(N3CCC(F)(F)C3)nc(C(C)(C)C)nc21 [Example 134, {3-[5-tert-Butyl-7-(3,3-difluoro-pyrrolidin-1-yl)-[1,2,3]triazolo[4,5-d]pyrimidin-3-ylmethyl]-5-chloro-pyridin-4-yl}-dimethyl-amine] | 0.3 | 234
13 | Cc1nnc(Cn2nnc3c(N4CC[C@H](O)C4)nc(C(C)(C)C)nc32)o1 [Example 150, (S)-1-[5-tert-Butyl-3-(5-methyl-[1,3,4]oxadiazol-2-ylmethyl)-3H-[1,2,3]triazolo[4,5-d]pyrimidin-7-yl]-pyrrolidin-3-ol] | 36.3 | > 10000
14 | Cc1nnc(Cn2nnc3c(N4CCC(F)(F)C4)nc(C(C)(C)C)nc32)o1 [Example 128, 5-tert-Butyl-7-(3,3-difluoro-pyrrolidin-1-yl)-3-(5-methyl-[1,3,4]oxadiazol-2-ylmethyl)-3H-[1,2,3]triazolo[4,5-d]pyrimidine] | 0.4 | > 10000
15 | CC(C)(C)c1nc(N2CCC(F)(F)C2)c2nnn(Cc3cc(F)ccc3Cl)c2n1 [Example 90, 5-tert-Butyl-3-(2-chloro-5-fluoro-benzyl)-7-(3,3-difluoro-pyrrolidin-1-yl)-3H-[1,2,3]triazolo[4,5-d]pyrimidine] | 0.5 | 370
16 | CC(C)(C)c1nc(N2CCCS2(=O)=O)c2nnn(Cc3ccccc3Cl)c2n1 [Example 47, 5-tert-Butyl-3-(2-chloro-benzyl)-7-(1,1-dioxo-1λ6-isothiazolidin-2-yl)-3H-[1,2,3]triazolo[4,5-d]pyrimidine] | 20.2 | > 10000
17 | Cc1cc(C2CCCN2c2nc(C(C)(C)C)nc3c2nnn3Cc2ccccc2Cl)on1 (stereo not drawn) [Example 202, 5-tert-Butyl-3-(2-chloro-benzyl)-7-[2-(3-methyl-isoxazol-5-yl)-pyrrolidin-1-yl]-3H-[1,2,3]triazolo[4,5-d]pyrimidine] | 86.8 | > 10000
18 | COc1ccc(Cn2nnc3c(N4CC[C@H](O)[C@@H]4CO)nc(C(C)(C)C)nc32)cc1 [Example 159, (2S,3S)-1-[5-tert-Butyl-3-(4-methoxy-benzyl)-3H-[1,2,3]triazolo[4,5-d]pyrimidin-7-yl]-2-hydroxymethyl-pyrrolidin-3-ol] | 35.8 | > 10000
19 | Cc1noc(Cn2nnc3c(N4CC5(COC5)C4)nc(C(C)(C)C)nc32)n1 [Example 180, 5-tert-Butyl-3-(3-methyl-[1,2,4]oxadiazol-5-ylmethyl)-7-(2-oxa-6-aza-spiro[3.3]hept-6-yl)-3H-[1,2,3]triazolo[4,5-d]pyrimidine] | 52.8 | > 10000
20 | CC(C)(C)c1nc(N2CCC(F)(F)C2)c2nnn(CC(F)(F)F)c2n1 [Example 76, 5-tert-Butyl-7-(3,3-difluoro-pyrrolidin-1-yl)-3-(2,2,2-trifluoro-ethyl)-3H-[1,2,3]triazolo[4,5-d]pyrimidine] | 2.3 | > 10000
21 | Cc1nnc(Cn2nnc3c(N4CC(F)(F)C(F)(F)C4)nc(C(C)(C)C)nc32)o1 [Example 175, 5-tert-Butyl-3-(5-methyl-[1,3,4]oxadiazol-2-ylmethyl)-7-(3,3,4,4-tetrafluoro-pyrrolidin-1-yl)-3H-[1,2,3]triazolo[4,5-d]pyrimidine] | 1.5 | > 10000
22 | CC(C)(C)c1nc(N2CCC(F)(F)C2)c2nnn(Cc3ccncc3)c2n1 [Example 75, 5-tert-Butyl-7-(3,3-difluoro-pyrrolidin-1-yl)-3-pyridin-4-ylmethyl-3H-[1,2,3]triazolo[4,5-d]pyrimidine] | 0.2 | 97.8
23 | CC(C)(C)c1nc(N2CCC(F)(F)C2)c2nnn(Cc3c(F)ccc(Cl)c3Cl)c2n1 [Example 111, 5-tert-Butyl-3-(2,3-dichloro-6-fluoro-benzyl)-7-(3,3-difluoro-pyrrolidin-1-yl)-3H-[1,2,3]triazolo[4,5-d]pyrimidine] | 0.2 | 137
24 | CC(C)(C)c1nc(N2CCC(F)(F)C2)c2nnn([C@H]3CCOC3)c2n1 [Example 109, 5-tert-Butyl-7-(3,3-difluoro-pyrrolidin-1-yl)-3-(S)-tetrahydro-furan-3-yl-3H-[1,2,3]triazolo[4,5-d]pyrimidine] | 0.5 | > 10000
25 | CC(C)(C)c1nc(N2CCC(F)(F)C2)c2nnn(Cc3ccccc3C#N)c2n1 [Example 83, 2-[5-tert-Butyl-7-(3,3-difluoro-pyrrolidin-1-yl)-[1,2,3]triazolo[4,5-d]pyrimidin-3-ylmethyl]-benzonitrile] | 0.1 | 283
26 | CC(C)(C)c1nc(N2CCC(F)(F)C2)c2nnn(Cc3ccccc3OC(F)(F)F)c2n1 [Example 82, 5-tert-Butyl-7-(3,3-difluoro-pyrrolidin-1-yl)-3-(2-trifluoromethoxy-benzyl)-3H-[1,2,3]triazolo[4,5-d]pyrimidine] | 0.2 | 252
27 | CC(C)(C)c1nc(N2CCC(F)(F)C2)c2nnn(Cc3c(Cl)ccc(F)c3Cl)c2n1 [Example 96, 5-tert-Butyl-3-(2,6-dichloro-3-fluoro-benzyl)-7-(3,3-difluoro-pyrrolidin-1-yl)-3H-[1,2,3]triazolo[4,5-c]pyrimidine] | 0.1 | 167
